Source: patent US12168006B2, “Cancer therapy by degrading dual MEK signaling” (The Board of Trustees of the University of Illinois, priority 2017, dated 2024)
Entries after “also recorded” stand apart in the source; their conditions may differ.

What was measured:
CaMKII = conditions: cited from earlier work
caspase-3/-7 = test: Caspase-3/-7 activity assay; format: cell-based, human
Procedure: H3122 cells were seeded at 4,000 cells per well and allowed to adhere overnight. […] 10 μM raptinal was used as the positive control throughout the experiment. […] Plates were pre-incubated at 37° C. for 30 minutes in the SpectraMax M3 (Molecular Devices) plate reader and then read for 30 minutes at 3-minute intervals. Slopes for each well were calculated and averaged over six technical replicates. Activity is normalized to the maximal and minimal activity observed within the assay.

PKA = conditions: cited from earlier work
CDK1 = CDK1 (Homo sapiens, UniProt P06493); conditions: at 1 μM; cited from earlier work
CDK1, sequence (P06493 whole entry, species assumed): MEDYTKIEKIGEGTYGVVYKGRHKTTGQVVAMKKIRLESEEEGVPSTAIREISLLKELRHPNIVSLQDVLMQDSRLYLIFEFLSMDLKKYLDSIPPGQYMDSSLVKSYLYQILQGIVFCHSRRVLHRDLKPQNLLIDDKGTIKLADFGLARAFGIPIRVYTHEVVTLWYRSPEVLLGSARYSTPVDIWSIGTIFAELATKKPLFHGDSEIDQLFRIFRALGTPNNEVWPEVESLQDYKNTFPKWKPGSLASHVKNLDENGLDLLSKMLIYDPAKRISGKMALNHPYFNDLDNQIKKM
CDK1, sequence (P14635 whole entry partner, species assumed): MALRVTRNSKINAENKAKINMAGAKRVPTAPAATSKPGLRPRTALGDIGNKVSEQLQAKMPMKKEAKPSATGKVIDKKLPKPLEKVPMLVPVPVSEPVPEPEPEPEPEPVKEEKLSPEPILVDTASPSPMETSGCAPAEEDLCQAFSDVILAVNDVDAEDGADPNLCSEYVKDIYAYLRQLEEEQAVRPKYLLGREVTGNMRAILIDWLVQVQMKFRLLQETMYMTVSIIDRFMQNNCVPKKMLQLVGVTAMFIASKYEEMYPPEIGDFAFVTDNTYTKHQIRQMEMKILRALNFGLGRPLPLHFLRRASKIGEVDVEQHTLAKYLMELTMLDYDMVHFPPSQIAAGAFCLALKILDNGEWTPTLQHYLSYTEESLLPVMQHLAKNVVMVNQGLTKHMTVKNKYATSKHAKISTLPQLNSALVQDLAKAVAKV

CK2 = conditions: cited from earlier work
ERK1/2 (MAPK1) = ERK1/2 (MAPK1) (Homo sapiens, UniProt P28482); conditions: cited from earlier work
ERK1/2 (MAPK1), sequence (P28482 2-360 limits assumed): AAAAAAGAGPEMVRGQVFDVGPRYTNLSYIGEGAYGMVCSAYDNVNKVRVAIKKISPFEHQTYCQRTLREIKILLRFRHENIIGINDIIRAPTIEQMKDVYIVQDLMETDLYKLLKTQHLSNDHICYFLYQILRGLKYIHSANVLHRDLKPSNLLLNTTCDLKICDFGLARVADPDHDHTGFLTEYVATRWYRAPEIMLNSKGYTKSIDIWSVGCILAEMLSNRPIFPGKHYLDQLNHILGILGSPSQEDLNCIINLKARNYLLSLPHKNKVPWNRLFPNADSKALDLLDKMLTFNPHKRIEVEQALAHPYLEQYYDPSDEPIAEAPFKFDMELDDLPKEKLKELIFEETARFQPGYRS

MEK2 (MAP2K2) = MEK2 (MAP2K2) (Homo sapiens, UniProt P36507); conditions: at 1 μM; cited from earlier work
MEK2 (MAP2K2), sequence (P36507 whole entry, species assumed): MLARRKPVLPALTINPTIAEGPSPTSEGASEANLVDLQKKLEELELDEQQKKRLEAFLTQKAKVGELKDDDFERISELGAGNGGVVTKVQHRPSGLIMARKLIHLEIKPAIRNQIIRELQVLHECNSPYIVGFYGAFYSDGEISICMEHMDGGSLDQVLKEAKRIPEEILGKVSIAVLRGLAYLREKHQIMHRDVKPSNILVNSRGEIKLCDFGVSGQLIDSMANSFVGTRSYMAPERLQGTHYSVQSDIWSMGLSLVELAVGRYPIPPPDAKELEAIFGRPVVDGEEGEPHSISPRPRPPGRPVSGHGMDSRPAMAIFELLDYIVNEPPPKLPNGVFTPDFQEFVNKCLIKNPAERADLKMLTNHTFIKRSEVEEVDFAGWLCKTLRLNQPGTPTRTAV

PKCζ = PKCζ (Homo sapiens, UniProt Q05513); conditions: cited from earlier work
PKCζ, sequence (Q05513 whole entry): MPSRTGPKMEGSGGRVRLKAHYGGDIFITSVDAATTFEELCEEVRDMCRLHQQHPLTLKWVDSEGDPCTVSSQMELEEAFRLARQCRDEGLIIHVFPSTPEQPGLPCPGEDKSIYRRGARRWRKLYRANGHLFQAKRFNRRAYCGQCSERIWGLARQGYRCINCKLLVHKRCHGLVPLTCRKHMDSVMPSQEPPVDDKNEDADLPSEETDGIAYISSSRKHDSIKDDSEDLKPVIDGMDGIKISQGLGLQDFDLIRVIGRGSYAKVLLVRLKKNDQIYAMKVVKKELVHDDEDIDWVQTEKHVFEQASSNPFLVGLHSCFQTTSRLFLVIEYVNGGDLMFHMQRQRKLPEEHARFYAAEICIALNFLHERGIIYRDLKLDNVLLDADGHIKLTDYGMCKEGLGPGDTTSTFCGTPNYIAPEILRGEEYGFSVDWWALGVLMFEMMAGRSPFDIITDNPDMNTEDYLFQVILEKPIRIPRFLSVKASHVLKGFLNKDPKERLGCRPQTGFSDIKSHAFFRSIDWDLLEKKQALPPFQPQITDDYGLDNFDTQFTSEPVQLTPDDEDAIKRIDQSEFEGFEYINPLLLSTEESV

PKCδ = PKCδ (Homo sapiens, UniProt Q05655); conditions: cited from earlier work
PKCδ, sequence (Q05655 whole entry): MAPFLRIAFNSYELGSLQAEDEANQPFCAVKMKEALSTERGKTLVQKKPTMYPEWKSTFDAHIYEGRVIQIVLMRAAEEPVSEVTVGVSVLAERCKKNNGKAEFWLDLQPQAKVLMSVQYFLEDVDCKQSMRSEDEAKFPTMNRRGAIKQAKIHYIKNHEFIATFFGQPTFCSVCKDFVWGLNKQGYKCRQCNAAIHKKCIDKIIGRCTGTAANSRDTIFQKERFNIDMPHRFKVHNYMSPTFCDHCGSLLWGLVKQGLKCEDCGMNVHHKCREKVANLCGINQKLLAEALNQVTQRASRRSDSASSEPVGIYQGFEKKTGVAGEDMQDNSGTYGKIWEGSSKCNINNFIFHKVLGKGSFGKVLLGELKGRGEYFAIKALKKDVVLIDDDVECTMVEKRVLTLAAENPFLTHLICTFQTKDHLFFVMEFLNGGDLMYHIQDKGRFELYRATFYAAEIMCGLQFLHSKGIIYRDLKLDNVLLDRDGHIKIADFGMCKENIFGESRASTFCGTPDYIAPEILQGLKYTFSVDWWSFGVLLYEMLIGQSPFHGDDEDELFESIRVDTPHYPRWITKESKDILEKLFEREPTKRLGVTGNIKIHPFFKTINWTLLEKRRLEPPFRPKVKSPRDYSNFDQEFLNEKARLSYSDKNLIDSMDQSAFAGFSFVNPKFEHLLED

DYRK1A = DYRK1A (Homo sapiens, UniProt Q13627); conditions: at 1 μM; cited from earlier work
Fyn = Fyn (Homo sapiens, UniProt P06241); conditions: at 1 μM; cited from earlier work
Fyn, sequence (P06241 whole entry, species assumed): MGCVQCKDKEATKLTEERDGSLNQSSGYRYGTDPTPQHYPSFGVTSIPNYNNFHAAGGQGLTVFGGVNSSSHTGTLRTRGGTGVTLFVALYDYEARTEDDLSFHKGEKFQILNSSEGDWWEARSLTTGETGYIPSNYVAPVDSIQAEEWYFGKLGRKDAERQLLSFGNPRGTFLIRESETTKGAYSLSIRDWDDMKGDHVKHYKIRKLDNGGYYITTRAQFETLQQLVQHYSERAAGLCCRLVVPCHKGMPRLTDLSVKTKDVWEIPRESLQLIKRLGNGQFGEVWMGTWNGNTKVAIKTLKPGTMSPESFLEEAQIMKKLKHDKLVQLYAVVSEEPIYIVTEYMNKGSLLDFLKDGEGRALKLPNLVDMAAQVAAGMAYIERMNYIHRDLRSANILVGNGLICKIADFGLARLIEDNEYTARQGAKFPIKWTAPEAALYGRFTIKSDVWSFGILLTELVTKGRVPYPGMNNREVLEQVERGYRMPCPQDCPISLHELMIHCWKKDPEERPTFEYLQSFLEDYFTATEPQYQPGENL

H3122 cells = test: Long term experiments with EML4-ALK cell line; conditions: for cytotoxic effect / cell proliferation: 8 days, PAC-1 2 μM, trametinib 5 nM
Procedure: H3122 cells were seeded at 10,000 cells per well in 6 well plates and allowed to adhere overnight. […] Media was refreshed every 3-4 days with new compounds. At the end of the incubation period, cells were fixed 10% trichloroacetic acid, stained with SRB, imaged using GelDoc XR, and absorbance at 510 nm read using SpectraMax M3 (Molecular Devices) plate reader.

[1] = tested on: BRAF^V600E melanoma, EGFR^T790M, and EML4-ALK NSCLCs; test: Delay of acquired resistance, summary of long term experiments; format: cell-based, human; conditions: added to the kinase inhibitor
Procedure: (§1) This assay was performed as described previously. Briefly, 100-250 cells were seeded and allowed to adhere overnight. […] Media was refreshed with new compounds added every 3-4 days.

AKT = conditions: cited from earlier work
Lyn = conditions: Ba/F3 cells; cited from earlier work
PC-9 GR and H1975 cells = test: Cell viability assay (SRB); format: cell-based, human; conditions: 5-day incubation
Procedure: Final concentration of DMSO in each well is 0.5%. At the end of 5 days, viability was assessed by the sulforhodamine B (SRB) assay sulforhodamine B (SRB) assay. Briefly, 100 μL of 10% trichloroacetic acid (TCA) was added in each well and the plate was incubated for at least 1 hour at 4° C. After the 4° C. incubation, the plate was washed with water and allowed to dry for at least 1 hour at room temperature. 100 μL of SRB dye (1% w/v) was added to each well and incubated for 30 minutes at room temperature. At the end of the 30 minutes incubation, the plate was washed with 1% acetic acid solution and allowed to dry at room temperature. Finally, 200 μL of Tris solution (pH>10) was added to each well to dissolve the SRB dye. The absorbance of each well was read with a SpectraMax M3 plate reader (Molecular Devices) at 510 nm.

A375 cells = test: Long term experiments in BRAF^V600E cell lines; format: cell-based, human; conditions: continuous treatment
Procedure: as §1

MEK1 and MEK2 kinases = test: Immunoblotting of procaspase-3, MEK1 and MEK2 levels; format: cell-based, human; conditions: Q-VD-OPh 25 μM added concurrently; 48 hours; A375, PC-9 GR, H3122
Procedure: Cells were lysed using RIPA buffer containing phosphatase (BioVision) and protease inhibitor cocktail (Calbiochem). Protein concentration was determined using the BCA assay (Pierce). Cell lysates containing 8-20 μg of protein were loaded into each lane of 4-20% gradient gels (BioRad) and ran for SDS-PAGE. Proteins were transferred onto PDVF membrane (Millipore) for Western blot analysis. Blots were blocked with BSA for one hour followed by incubation with primary antibody overnight (manufacturer's recommended dilutions). Secondary antibody was incubated for one hour. Blots were then imaged with a ChemiDoc Touch after incubation with SuperSignal West Pico Solution following manufacturer's protocols.

[2] = tested on: A375, PC-9 GR, H3122, K-562 cells; test: Q-VD-OPh protection by flow cytometry; format: cell-based, human; conditions: Q-VD-OPh 25 μM added concurrently; 48 hours
Procedure: A375 (BRAF^V600E) cells were seeded with 70,000 cells/well in 12-well plates and allowed to adhere overnight. The next day, indicated concentrations of PAC-1, vemurafenib, trametinib, and/or Q-VD-OPh were added and cells were incubated at 37° C. for 48 hours. […] The next day, they were incubated with PAC-1, ceritinib, and/or Q-VD-OPh for 48 hours. K-562 cells were seeded with 35,000 cells/well in 12-well plates.

PC-9 GR cells = test: Long term experiments with EGFR^T790M cell lines
Procedure: (§2) In 12 well plates, PC-9 GR or H1975 cells were seeded at 2,000 cells per well and allowed to adhere overnight.

H1975 cells = test: Long term experiments with EGFR^T790M cell lines
Procedure: as §2

[3] = H1975 NSCLC cells, PAC-1 5 μM, up to 48 h
[4] = PC-9 GR NSCLC cells, PAC-1 5 μM, up to 48 h

Cc1ccc(NC(=O)c2ccc(CN3CCN(C)CC3)cc2)cc1Nc1nccc(-c2cccnc2)n1 [Imatinib]
Inhibition of CaMKII (in words) (CaMKII): Not observed | caspase-3 activity (caspase-3/-7; K-562 cells, PAC-1 7.5 μM): negligible single-agent activity | Inhibition of PKA (in words) (PKA): Not observed | % Inhibition of CDK1 (CDK1): 1.8% at 1 μM | Inhibition of CK2 (in words) (CK2): Not observed | Inhibition of ERK1/2 (MAPK1) (in words) (ERK1/2 (MAPK1)): Not observed | % Inhibition of MEK2 (MAP2K2) (MEK2 (MAP2K2)): 5.9% at 1 μM | Inhibition of PKCζ (in words) (PKCζ): Not observed | Inhibition of PKCδ (in words) (PKCδ): Not observed | % Inhibition of DYRK1A (DYRK1A): 2.2% at 1 μM | % Inhibition of Fyn (Fyn): 29.6% at 1 μM

CC(=O)Nc1cccc(-n2c(=O)n(C3CC3)c(=O)c3c(Nc4ccc(I)cc4F)n(C)c(=O)c(C)c32)c1 [trametinib]
cytotoxic effect / cell proliferation (H3122 cells): minimal cytotoxic effect

C=CCc1cccc(/C=N/NC(=O)CN2CCN(Cc3ccccc3)CC2)c1O [PAC-1]
caspase-3 activity (caspase-3/-7; [3]): Negligible increases | caspase-3 activity (caspase-3/-7; K-562 cells, PAC-1 7.5 μM): negligible single-agent activity | caspase-3 activity (caspase-3/-7; [4]): Negligible increases | concentration effective in delaying acquired resistance to vemurafenib, osimertinib, and ceritinib [1]: 1 to 2 µM

Cc1cc(Nc2ncc(Cl)c(Nc3ccccc3S(=O)(=O)C(C)C)n2)c(OC(C)C)cc1C1CCNCC1 [Ceritinib]
IC50 (AKT): > 10000 nM | IC50 (Lyn): 2310 nM | cytotoxic effect / cell proliferation (H3122 cells): effective in inhibiting cell proliferation | resistant clones (H3122 cells; 20 days of treatment): Resistant clones were visible | resistant clones (H3122 cells; 32 days of treatment): dramatic increase

COc1cc2ncnc(Nc3ccc(F)c(Cl)c3)c2cc1OCCCN1CCOCC1 [gefitinib]
activity in PC-9 GR and H1975 cells (FIG. 7A) (PC-9 GR and H1975 cells): inactive

CCCS(=O)(=O)Nc1ccc(F)c(C(=O)c2c[nH]c3ncc(-c4ccc(Cl)cc4)cc23)c1F [Vemurafenib]
time at which resistant colonies were first seen (A375 cells): 20 days

CC(C)[C@H](NC(=O)c1ccc2ccccc2n1)C(=O)N[C@@H](CC(=O)O)C(=O)COc1c(F)cccc1F [Q-VD-OPh]
MEK1/2 cleavage in cells treated with PAC-1/drug combinations (MEK1 and MEK2 kinases): attenuated | apoptotic cell death in cells treated with PAC-1/drug combinations [2]: protection

C=CC(=O)Nc1cc(Nc2nccc(-c3cn(C)c4ccccc34)n2)c(OC)cc1N(C)CCN(C)C [Osimertinib]
caspase-3 activity (caspase-3/-7; [3]): Negligible increases | caspase-3 activity (caspase-3/-7; [4]): Negligible increases | resistant clones (PC-9 GR cells): clearly visible; also recorded: resistant clones were visible; also recorded: dramatic increase | cytotoxic effect / cell proliferation (PC-9 GR cells; 8 days, PAC-1 2 μM, osimertinib 30 nM, trametinib 5 nM): very effective; also recorded: effective in inhibiting cell proliferation | cytotoxic effect / cell proliferation (H1975 cells): very effective | resistant clones (H1975 cells): clearly visible
